Data on 13 compounds can be found in ChEMBL document CHEMBL1201862, “PubChem BioAssay data set” (2004).

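The compound was tested at five concentrations on cells cultured in 96-well plates, with a 48-hour exposure period. GI50 marks 50% less growth.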 Activity calls are given as the source filed them. No stated cut-off is given here; in the data, active = GI50 up to about 1.1 µM and inactive = higher. Some results are limits rather than exact numbers.

Test systems include 786-0; RXF 393; SK-OV-3; OVCAR-4; HCT-15; HCT-116; HOP-62; IGROV-1; UACC-62; NCI-H522; CAKI-1; KM12; SF-295; SNB-75; K562; SK-MEL-5; RPMI-8226; LOX IMVI; SR.
Assay in all cases: NCI-60 cell line screen, 48 h

As for `CCOC(=O)CSC(=O)NCCCl`, the GI50 with 786-0 is > 100 µM (inactive); with RXF 393, > 100 µM (inactive); in the experiment on SK-OV-3, > 100 µM (inactive); in the experiment on OVCAR-4 it was > 100 µM (inactive); with HCT-15 it was > 100 µM; with HCT-116, > 100 µM (inactive). The GI50 in the experiment on HOP-62, in the experiment with IGROV-1, with UACC-62, in the experiment on NCI-H522, in the experiment with CAKI-1 and with KM12 was > 100 µM (inactive) throughout. Moreover, the GI50 with SF-295 and in the experiment with SNB-75 was > 100 µM (inactive) in each case.

Take `Clc1cc2nsnc2c(Cl)n1`: the GI50 with K562 is 5.41 µM (inactive); with 786-0 it was 16.9 µM (inactive); with SK-OV-3, 2.62 µM (inactive); in the experiment on SK-MEL-5 it was 16.9 µM (inactive); with OVCAR-4 it was 17.1 µM (inactive); with RPMI-8226, 22.2 µM (inactive). Further, the GI50 was 21.3 µM in the experiment on HCT-15; > 100 µM (inactive) in the experiment with HOP-62; 26.2 µM (inactive) in the experiment on IGROV-1; 26.5 µM (inactive) with UACC-62; 18.4 µM (inactive) with NCI-H522; 33 µM (inactive) in the experiment on LOX IMVI. The GI50 is 10.8 µM (inactive) in the experiment on CAKI-1, 47.2 µM (inactive) in the experiment with KM12 and 41.5 µM (inactive) in the experiment on SF-295.

As for `O=S(=O)(O)c1ccc2c(/N=N/c3cccc4ccccc34)c(O)c(S(=O)(=O)O)cc2c1`, the GI50 with K562, in the experiment with 786-0, in the experiment on RXF 393, with SK-OV-3, with SK-MEL-5 and in the experiment with OVCAR-4 was > 100 µM (inactive) in each case. Besides, the GI50 with RPMI-8226 is > 100 µM (inactive); in the experiment with HCT-15, > 100 µM; in the experiment with HCT-116, > 100 µM (inactive); in the experiment on HOP-62 it was > 100 µM (inactive); in the experiment with IGROV-1, > 100 µM (inactive); in the experiment on UACC-62, > 100 µM (inactive). Besides, the GI50 with NCI-H522, with LOX IMVI, in the experiment with CAKI-1, with KM12, in the experiment with SF-295 and in the experiment on SNB-75 was > 100 µM (inactive) each time.

Consider `CC1(C)C=CC(=O)C(O)C(C)(C)C1=O` (stereo not given), for which the GI50 is 30.3 µM (inactive) in the experiment on K562; 96.2 µM (inactive) with 786-0; 66.5 µM (inactive) in the experiment on RXF 393; > 100 µM (inactive) in the experiment on SK-OV-3; > 100 µM (inactive) with SK-MEL-5; > 100 µM (inactive) with OVCAR-4. Also, the GI50 in the experiment with RPMI-8226 is 21.3 µM (inactive); in the experiment on HCT-15, 51.2 µM; in the experiment with HCT-116 it was 54.5 µM (inactive); in the experiment with HOP-62 it was 53.6 µM (inactive); in the experiment on IGROV-1 it was 89.1 µM (inactive); in the experiment with UACC-62 it was 52.8 µM (inactive). Moreover, the GI50 with NCI-H522 was 19.9 µM (inactive); in the experiment on LOX IMVI it was 28.7 µM (inactive); in the experiment on CAKI-1, > 100 µM (inactive); with KM12, 65.8 µM (inactive); in the experiment on SF-295 it was 75.3 µM (inactive); with SNB-75, 38.7 µM (inactive).

For the compound `COc1ccc(C(=O)C(C(=O)C(=O)NC2C3CC4CC(C3)CC2C4)c2ccc(OC)cc2)cc1` (stereo not given), the GI50 with K562, in the experiment on 786-0, with SK-OV-3, in the experiment with SK-MEL-5, in the experiment on OVCAR-4 and in the experiment on RPMI-8226 was > 100 µM (inactive) in each case. For the same compound, the GI50 in the experiment on HCT-15 is > 100 µM; with HCT-116, > 100 µM (inactive); in the experiment with HOP-62, > 100 µM (inactive); in the experiment with IGROV-1, > 100 µM (inactive); in the experiment with UACC-62, > 100 µM (inactive); in the experiment on NCI-H522, > 100 µM (inactive). Besides, the GI50 in the experiment on LOX IMVI is > 100 µM (inactive); in the experiment on CAKI-1 it was > 100 µM (inactive); with KM12, > 100 µM (inactive); with SF-295, > 100 µM (inactive); with SNB-75, 16.6 µM (inactive); in the experiment on SR, > 100 µM (inactive).

For `Cc1cc(N(CCC#N)CCC#N)ccc1/C=C(\NC(=O)/C=C/c1ccccc1)C(=O)Nc1ccccc1Cl`, the GI50 in the experiment with K562, with 786-0, in the experiment with RXF 393, in the experiment on SK-MEL-5, with OVCAR-4 and with RPMI-8226 was > 100 µM (inactive) in each case. The GI50 was > 100 µM in the experiment with HCT-15; > 100 µM (inactive) in the experiment with HCT-116; > 100 µM (inactive) in the experiment on IGROV-1; > 100 µM (inactive) with UACC-62; > 100 µM (inactive) with LOX IMVI; 78.7 µM (inactive) with CAKI-1. Further, the figures for the GI50 in the experiment on KM12 and in the experiment with SF-295 were > 100 µM (inactive) and 92 µM (inactive), respectively.

For the compound `CC(=O)Nc1ccc(C(=O)NN2C(=O)C(Cl)C2c2cccc([N+](=O)[O-])c2)cc1` (stereo not given), the GI50 in the experiment on K562, in the experiment on SK-OV-3, in the experiment on SK-MEL-5, in the experiment on RPMI-8226, in the experiment on HCT-116 and in the experiment with HOP-62 was > 100 µM (inactive) each time. Besides, the GI50 in the experiment with IGROV-1, in the experiment on UACC-62, with NCI-H522, in the experiment with KM12, in the experiment on SF-295 and in the experiment on SNB-75 was > 100 µM (inactive) in each case. For the same compound, the GI50 in the experiment on SR is > 100 µM (inactive).

Consider `C/C=C(\C)C(=O)OC1C2C(C)=CC(=O)C(O)C2(C)C2C3(O)OCC24C1OC(=O)C(OC(C)=O)C4C(C)C3O` (stereo not given), for which the GI50 with K562 is 0.0375 µM (active); in the experiment on RXF 393, 0.0375 µM (active); in the experiment on SK-OV-3 it was 0.144 µM (active); with OVCAR-4, 0.11 µM (active); in the experiment on RPMI-8226, 0.0375 µM (active); with HCT-15 it was 0.0741 µM. Besides, the GI50 with HCT-116 was 0.0375 µM (active); in the experiment with HOP-62 it was 0.0375 µM (active); with IGROV-1 it was 0.0375 µM (active); with UACC-62, 0.0375 µM (active); with LOX IMVI, 0.0375 µM (active); in the experiment with CAKI-1, 0.197 µM (active). Further, the GI50 in the experiment with KM12 is 0.0375 µM (active); in the experiment with SF-295 it was 0.0402 µM (active); in the experiment with SNB-75, 0.0389 µM (active).

With `CCOP(=O)(OCC)C(Nc1ccc(C(=O)O)cc1)c1ccc(C(Nc2ccc(C(=O)O)cc2)P(=O)(OCC)OCC)cc1` (stereo not given), the GI50 in the experiment on K562, with 786-0, with RXF 393, in the experiment on SK-OV-3, in the experiment with SK-MEL-5 and in the experiment on OVCAR-4 was > 100 µM (inactive) in each case. Moreover, the GI50 was > 100 µM (inactive) in the experiment on RPMI-8226; > 100 µM in the experiment with HCT-15; > 100 µM (inactive) with HCT-116; > 100 µM (inactive) in the experiment with HOP-62; > 100 µM (inactive) with IGROV-1; > 100 µM (inactive) with UACC-62. For the same compound, the GI50 in the experiment on NCI-H522, with LOX IMVI, in the experiment with CAKI-1, with KM12, with SF-295 and in the experiment on SNB-75 was > 100 µM (inactive) in each case.

Turning to `COc1cc(-c2cc(O)c3cc4c(cc3n2)OCO4)cc(OC)c1OC`, the GI50 in the experiment on K562 was > 100 µM (inactive); in the experiment on 786-0, > 100 µM (inactive); in the experiment on SK-OV-3, 37.5 µM (inactive); in the experiment with SK-MEL-5, > 100 µM (inactive); in the experiment with OVCAR-4, > 100 µM (inactive); in the experiment on RPMI-8226 it was > 100 µM (inactive). The GI50 with HCT-15 was > 100 µM; in the experiment on HOP-62, 24.5 µM (inactive); in the experiment on IGROV-1, > 100 µM (inactive); in the experiment on UACC-62, 51.5 µM (inactive); in the experiment with NCI-H522, 62.7 µM (inactive); with LOX IMVI, 59.3 µM (inactive). Further, the GI50 is > 100 µM (inactive) with CAKI-1, > 100 µM (inactive) with KM12, > 100 µM (inactive) in the experiment on SNB-75 and 71 µM (inactive) in the experiment on SR.

Take `C=CC1(C)CCC2=C(CCC3C(C)(C(=O)OC)CCCC23C)C1=O` (stereo not given): the GI50 in the experiment with K562 was 38.8 µM (inactive); in the experiment on SK-OV-3 it was 18.9 µM (inactive); with SK-MEL-5 it was 16.7 µM (inactive); with OVCAR-4 it was 14.7 µM (inactive); in the experiment with RPMI-8226, 21.7 µM (inactive); in the experiment with HCT-15, 20.6 µM. Also, the GI50 in the experiment on HCT-116 is 17.3 µM (inactive); in the experiment with HOP-62, 16.8 µM (inactive); with IGROV-1 it was 18.9 µM (inactive); with UACC-62, 18.3 µM (inactive); in the experiment with NCI-H522, 15.1 µM (inactive); in the experiment with LOX IMVI, 18.5 µM (inactive). Besides, the GI50 in the experiment with CAKI-1 was 30.3 µM (inactive); with KM12 it was 17.4 µM (inactive); in the experiment on SF-295, 27 µM (inactive); in the experiment with SR it was 19 µM (inactive).

Turning to `COc1ccc(N(CC(=O)O)S(=O)(=O)c2ccccc2)cc1`, the GI50 with K562, with 786-0, in the experiment on RXF 393, in the experiment on SK-OV-3, with SK-MEL-5 and in the experiment on OVCAR-4 was > 100 µM (inactive) in each case. The GI50 in the experiment on RPMI-8226 was > 100 µM (inactive); in the experiment with HCT-15 it was > 100 µM; in the experiment on IGROV-1 it was > 100 µM (inactive); in the experiment with UACC-62, > 100 µM (inactive); in the experiment with NCI-H522 it was > 100 µM (inactive); in the experiment with LOX IMVI it was > 100 µM (inactive). Besides, the GI50 in the experiment on CAKI-1, with KM12 and with SF-295 was > 100 µM (inactive) each time.

Take `CCCNC(C#N)c1ccc(C(C#N)NCCC)cc1` (stereo not given): the GI50 in the experiment with K562 was 37.8 µM (inactive); with 786-0 it was > 100 µM (inactive); with RXF 393 it was > 100 µM (inactive); in the experiment on SK-OV-3, > 100 µM (inactive); with SK-MEL-5, > 100 µM (inactive); in the experiment with OVCAR-4, > 100 µM (inactive). The GI50 in the experiment on HCT-15 was > 100 µM; in the experiment with HCT-116, 40.3 µM (inactive); with IGROV-1, > 100 µM (inactive); in the experiment on UACC-62, > 100 µM (inactive); with NCI-H522, > 100 µM (inactive); in the experiment with LOX IMVI it was > 100 µM (inactive). Also, the GI50 with CAKI-1, with KM12 and in the experiment with SF-295 was > 100 µM (inactive) in each case.
